Laboratory results from ChEMBL document CHEMBL1125992, “Evaluation of bouvardin, deoxybouvardin, and RA-I - RA-VII partial structures: reassignment of the pharmacophore” (Bioorg Med Chem Lett, 1991).
Values after ≈ are worked out from the molar mass of the structure shown. Starred links: 1 amine or outer side, 2 acyl side, 3 side chain; linkers in the order of their positions; H or OH if unused. Non-standard residues stand in square brackets, D forms with d. Residues, ends and D or L forms follow the SMILES beside them. ξ: configuration not given here. X1 = CN(CCc1ccc(Oc2cccc(CCC(=O)[*:2])c2)cc1)[*:1]; NMeY = CN[C@@H](Cc1ccc(O)cc1)C(=O)O; ξA = CC(N)C(=O)O

Tested on: L1210
Assay: In vitro cytotoxicity against L1210 (murine leukemia) cells.
Type: functional, cell-based
Conditions: Mus musculus

SMILES: COc1ccc(C[C@H]2C(=O)N[C@@H](C)C(=O)N(C)CCc3ccc(cc3)Oc3cccc(c3)CCC(=O)NC(C)C(=O)N[C@@H](C)C(=O)N2C)cc1 (stereo partly specified) (cyclo(A[NMeY](Me)A[X1][ξA]))
- IC50: 20 µg/mL (≈ 29.2 µM)

SMILES: COC(=O)[C@@H]1Cc2ccc(OC)c(c2)Oc2ccc(cc2)C[C@H](N(C)C(=O)OCc2ccccc2)C(=O)N1C
- IC50: 0.04 µg/mL (≈ 0.0751 µM)

SMILES: COc1ccc(C[C@H]2C(=O)N[C@@H](C)C(=O)N(C)Cc3ccccc3CC(=O)N[C@H](C)C(=O)N[C@@H](C)C(=O)N2C)cc1
- IC50: 25 µg/mL (≈ 44.2 µM)

SMILES: COC(=O)[C@@H]1Cc2ccc(OC)c(c2)Oc2ccc(cc2)C[C@H](N(C)C(=O)OC(C)(C)C)C(=O)N1C
- IC50: 0.03 µg/mL (≈ 0.0602 µM)

SMILES: COC(=O)[C@@H]1Cc2ccc(OC)c(c2)Oc2ccc(cc2)CCC(=O)N1
- IC50: > 100 µg/mL

SMILES: COc1ccc(C[C@H]2C(=O)N[C@@H](C)C(=O)N(C)[C@H]3Cc4ccc(cc4)Oc4cc(ccc4OC)C[C@H](NC3=O)C(=O)N[C@H](C)C(=O)N[C@@H](C)C(=O)N2C)cc1
- IC50: 0.001 µg/mL (≈ 0.00132 µM)

SMILES: COC(=O)[C@@H]1Cc2ccc(O)c(c2)Oc2ccc(cc2)CCC(=O)N1
- IC50: > 100 µg/mL

SMILES: COC(=O)[C@@H]1Cc2ccc(cc2)Oc2cc(ccc2OC(=O)c2ccccc2)C[C@H](N(C)C(=O)OCc2ccccc2)C(=O)NC(C)C(=O)N[C@@H](C)C(=O)N(C)[C@@H](Cc2ccc(OC)cc2)C(=O)N[C@@H](C)C(=O)N1C (stereo partly specified)
- IC50: 10 µg/mL (≈ 9.74 µM)

SMILES: CN[C@H]1Cc2ccc(O)c(c2)Oc2ccc(cc2)C[C@@H](C(=O)O)N(C)C(=O)[C@H](C)NC(=O)[C@H](Cc2ccc(OC)cc2)N(C)C(=O)[C@H](C)NC(=O)[C@@H](C)NC1=O
- IC50: 10 µg/mL (≈ 12.9 µM)

SMILES: COc1ccc(C[C@H]2C(=O)N[C@@H](C)C(=O)N(C)[C@@H](Cc3ccc(O)cc3)C(=O)N(C)[C@@H](Cc3ccc(O)cc3)C(=O)N[C@H](C)C(=O)N[C@@H](C)C(=O)N2C)cc1
- IC50: > 100 µg/mL

SMILES: COc1ccc(C[C@H]2C(=O)N[C@@H](C)C(=O)N(C)[C@H]3Cc4ccc(cc4)Oc4cc(ccc4OC)C[C@@H](C(=O)N[C@H](C)C(=O)N[C@@H](C)C(=O)N2C)N(C)C3=O)cc1
- IC50: 0.002 µg/mL (≈ 0.00259 µM)

SMILES: COc1ccc2cc1Oc1ccc(cc1)CCC(=O)NCC2
- IC50: > 100 µg/mL

SMILES: COc1ccc(C[C@H]2C(=O)N[C@@H](C)C(=O)N[C@H](C)C(=O)N[C@@H](C)C(=O)N2C)cc1
- IC50: 20 µg/mL (≈ 49.4 µM)

SMILES: COC(=O)[C@@H]1Cc2ccc(OC)c(c2)Oc2ccc(cc2)C[C@H](N(C)C(=O)OC(C)(C)C)C(=O)N1
- IC50: 0.06 µg/mL (≈ 0.124 µM)

SMILES: CN1CCc2cccc(c2)Oc2ccc(cc2)CCC1=O
- IC50: > 100 µg/mL

SMILES: COc1ccc2cc1Oc1ccc(cc1)CCC(=O)N(C)CC2
- IC50: > 100 µg/mL

SMILES: COc1ccc(C[C@H]2C(=O)N[C@@H](C)C(=O)N(C)CC(=O)N(C)CC(=O)N[C@H](C)C(=O)N[C@@H](C)C(=O)N2C)cc1
- IC50: > 100 µg/mL

SMILES: O=C1CCc2ccc(cc2)Oc2cccc(c2)CCN1
- IC50: > 100 µg/mL

SMILES: COc1ccc(C[C@H]2C(=O)N[C@@H](C)C(=O)N(C)[C@H]3C(=O)N(C)[C@H]3C(=O)NC(C)C(=O)N[C@@H](C)C(=O)N2C)cc1 (stereo partly specified)
- IC50: 50 µg/mL (≈ 91.8 µM)

SMILES: COC(=O)[C@@H]1Cc2ccc(OC)c(c2)Oc2ccc(cc2)C[C@H](N(C)C(=O)OCc2ccccc2)C(=O)N1
- IC50: 0.05 µg/mL (≈ 0.0964 µM)

SMILES: COc1ccc(C[C@H]2C(=O)N[C@@H](C)C(=O)N(C)[C@H]3Cc4ccc(cc4)Oc4cc(ccc4O)C[C@@H](C(=O)N[C@H](C)C(=O)N[C@@H](C)C(=O)N2C)N(C)C3=O)cc1
- IC50: 0.002 µg/mL (≈ 0.00264 µM)
